{"source": "patent US6521628B1", "about": "“Fungicidal mixtures” (BASF Aktiengesellschaft, priority 1999, dated 2003)", "type_in_all_cases": "in vivo", "key": {"[1]": {"system": "Puccinia recondita", "assay": "Greenhouse test, 4 day residual, Puccinia recondita on wheat (Examples 7, 9, 12, 15)", "conditions": "96 h, read-out: Observed Efficacy; for pest or weed control at 0.4 ppm: dose rate 0.4 ppm; for pest or weed control at 2 ppm: dose rate 2 ppm; for pest or weed control at 10 ppm: dose rate 10 ppm; for pest or weed control at 50 ppm: dose rate 50 ppm; for pest or weed control at 4 ppm: dose rate 4 ppm; for pest or weed control at 16 ppm: dose rate 16 ppm", "description": "(§1) The trials are carried out under greenhouse (Examples 1 to 18) or field conditions (Example 19) in residual or curative applications. The fungicides are applied in single treatments, or in a combination comprising a benzophenone of formula I and a compound selected from the classes (A) through (E) as defined above. The compounds are applied in form of an aqueous spray mix obtained from concentrated formulation or the technical material.\n(§2) 1. Seed is planted in 6 cm diameter plastic pots and maintained in the greenhouse.\n(§3) 2. When the primary leaf is fully expanded in the case of cereals or several leaves are present in the case of dicots, formulated test compounds are sprayed with a three nozzle overhead fungicide sprayer to near run-off. Alternatively, a single nozzle overhead track sprayer is used for application of the compounds to cereals at a rate of 200 l/ha. Plants are then allowed to air-dry.\n(§4) 3. Inoculation precedes treatment in the case of curative evaluations and follows treatment in case of residual evaluations.\n(§5) For inoculation of non-powdery mildew diseases, an aqueous spore suspension of the pathogen is applied to the plant and the plants are kept 1-2 days in a moist infection chamber before being returned to the greenhouse where they are maintained by bottom watering.\n(§6) 4. Disease on the foliage as percent leaf area with disease symptoms/signs is evaluated about 7 days after inoculation. In the case of wheat, the tips and bases of the leaves are excluded from the evaluation. [formula]\n(§7) 1. Technical compounds are formulated in a solvent/surfactant system consisting of 5% acetone and 0.05% Tween 20 in deionized water. Compounds are dissolved in acetone prior to addition of the water; the Tween 20 can be added through either the acetone or the water. Dilutions are made using the solvent/surfactant system. Formulated compounds are prepared using deionized water.\n(§8) Assessments of the diseases took place at the indicated day after the application of the compounds. Per cent infected leaf area infected was evaluated. The efficacy of the compounds/compounds mixtures to control the diseases was calculated by using the formula given above under item 4: […]\n(§9) Synergy was calculated using the % disease control values of specific treatments for the two COLBY formula given hereinabove\nFungicidal Efficacy of the Mixture of BP-4+Other Fungicides (4 Day Residual) Against Puccinia recondita on Wheat\nFungicidal Efficacy of the Mixture of BP4+Other Fungicides (4 Day Residual) Against Puccinia recondita on Wheat\nFungicidal Efficacy of the Mixture of BP-4+Myclobutanil (4 Day Residual) Against Puccinia recondita on Wheat"}, "[2]": {"system": "Erysiphe cichoracearum", "assay": "Greenhouse test, 4 day residual, Erysiphe cichoracearum on cucumbers (Examples 6, 11, 14)", "conditions": "Golovinomyces cichoracearum, 96 h, read-out: Observed Efficacy; for pest or weed control at 0.4 ppm: dose rate 0.4 ppm; for pest or weed control at 2 ppm: dose rate 2 ppm; for pest or weed control at 10 ppm: dose rate 10 ppm; for pest or weed control at 50 ppm: dose rate 50 ppm", "description": "as §1, §2, §3, §4\n(§10) For inoculation of powdery mildew disease, plants are set up on greenhouse benches with bottom watering mats and inoculated by dusting them with conidia from infected plants. Between inoculation and treatment for curative evaluations and between treatment and inoculation for residual evaluations, plants are maintained in the greenhouse with bottom watering.\nas §6, §7, §8, §9\nFungicidal Efficacy of the Mixture of BP-4+Other Fungicides (4 Day Residual) Against Erysiphe cichoracearum on Cucumbers\nFungicidal Efficacy of the Mixture of BP4+Other Fungicides (4 Day Residual) Against Erysiphe cichoracearum on Cucumbers"}, "[3]": {"system": "Pyrenophora teres", "assay": "Greenhouse test, 4 day residual, Pyrenophora teres on barley (Examples 13, 16)", "conditions": "96 h, single product, read-out: Observed Efficacy; for pest or weed control at 0.4 ppm: dose rate 0.4 ppm; for pest or weed control at 2 ppm: dose rate 2 ppm; for pest or weed control at 10 ppm: dose rate 10 ppm; for pest or weed control at 50 ppm: dose rate 50 ppm", "description": "as §1, §2, §3, §4, §5, §6, §7, §8, §9\nFungicidal Efficacy of the Mixture of BP4+Other Fungicides (4 Day Residual) Against Pyrenophora teres on barley\nFungicidal Efficacy of the Mixture of BP4+Other Fungicides (4 Day Residual) Against Pyrenophora teres on Barley"}, "[4]": {"system": "Uncinula necator", "assay": "Greenhouse test, 1 day residual, Uncinula necator on vines (Example 18)", "conditions": "Table XVIII, single compound", "description": "as §1, §2, §3, §4, §10, §6, §7, §8, §9\nFungicidal Efficacy of the Mixture of BP-4+AP-4 (1 Day Residual) Against Uncinula necator on Vines"}, "[5]": {"system": "Leptosphaeria nodorum", "assay": "Greenhouse test, 4 day residual, Leptosphaeria nodorum on wheat (Examples 8, 10)", "conditions": "Parastagonospora nodorum, 96 h, single compound, read-out: Observed Efficacy; for pest or weed control at 4 ppm: dose rate 4 ppm; for pest or weed control at 16 ppm: dose rate 16 ppm; for pest or weed control at 64 ppm: dose rate 64 ppm; for pest or weed control at 256 ppm: dose rate 256 ppm", "text": "The fungicides are applied in single treatments, or in a combination comprising a benzophenone of formula I and a compound selected from the classes (A) through (E) as defined above. The compounds are applied in form of an aqueous spray mix obtained from concentrated formulation or the technical material.\nas §2, §3, §4, §5, §6, §7, §8, §9"}, "[6]": {"system": "Blumeria graminis f. sp. tritici", "assay": "Greenhouse test, 2 day curative, Blumeria graminis f. sp. tritici on wheat (Example 17)", "conditions": "Table XVII, single compound", "description": "as §1, §2, §3, §4, §10, §6, §7, §8, §9\nFungicidal Efficacy of the Mixture of Different Benzophenones+Metconazole (2 Day Curative) Against Blumeria graminis f. sp. tritici on Wheat"}, "[7]": {"conditions": "Example 15, Table XV, single product, wheat"}, "[8]": {"conditions": "Example 14, Table XIV, single product, cucumbers"}, "[9]": {"conditions": "Table XI, single compound or product"}}, "note": "Like-named read-outs stand apart in the source and are kept apart here."}
{"smiles": "COc1cc(C)c(C(=O)c2c(C)ccc(Br)c2OC)c(OC)c1OC", "note": "[BP-4, 3-bromo-2′,6-dimethyl-2,4′,5′,6′-tetramethoxybenzophenone]", "values": [{"measurement": "pest or weed control at 0.4 ppm", "setting": "[1]; [7]", "result": 0, "unit": "%"}, {"measurement": "pest or weed control at 2 ppm", "setting": "[1]; [7]", "result": 0, "unit": "%"}, {"measurement": "pest or weed control at 10 ppm", "setting": "[1]; [7]", "result": 6, "unit": "%"}, {"measurement": "pest or weed control at 50 ppm", "setting": "[1]; [7]", "result": 12, "unit": "%"}, {"measurement": "pest or weed control at 4 ppm", "setting": "[1]; Table IX, single compound", "result": 6, "unit": "%"}, {"measurement": "pest or weed control at 16 ppm", "setting": "[1]; Table IX, single compound", "result": 4, "unit": "%"}, {"measurement": "pest or weed control at 64 ppm", "setting": "[1]; Table IX, single compound, dose rate 64 ppm", "result": 16, "unit": "%"}, {"measurement": "pest or weed control at 256 ppm", "setting": "[1]; Table IX, single compound, dose rate 256 ppm", "result": 38, "unit": "%"}, {"measurement": "pest or weed control at 4 ppm", "setting": "[1]; Table VII, single compound", "result": 0, "unit": "%"}, {"measurement": "pest or weed control at 16 ppm", "setting": "[1]; Table VII, single compound", "result": 0, "unit": "%"}, {"measurement": "pest or weed control at 0.4 ppm", "setting": "[1]; Table XII, single compound", "result": 2, "unit": "%"}, {"measurement": "pest or weed control at 2 ppm", "setting": "[1]; Table XII, single compound", "result": 7, "unit": "%"}, {"measurement": "pest or weed control at 10 ppm", "setting": "[1]; Table XII, single compound", "result": 10, "unit": "%"}, {"measurement": "pest or weed control at 50 ppm", "setting": "[1]; Table XII, single compound", "result": 31, "unit": "%"}, {"measurement": "pest or weed control at 0.4 ppm", "setting": "[2]; [8]", "result": 0, "unit": "%"}, {"measurement": "pest or weed control at 2 ppm", "setting": "[2]; [8]", "result": 0, "unit": "%"}, {"measurement": "pest or weed control at 10 ppm", "setting": "[2]; [8]", "result": 13, "unit": "%"}, {"measurement": "pest or weed control at 50 ppm", "setting": "[2]; [8]", "result": 97, "unit": "%"}, {"measurement": "pest or weed control at 1 ppm", "setting": "[2]; Table VI, single compound, dose rate 1 ppm", "result": 1, "unit": "%"}, {"measurement": "pest or weed control at 4 ppm", "setting": "[2]; Table VI, single compound, dose rate 4 ppm", "result": 6, "unit": "%"}, {"measurement": "pest or weed control at 16 ppm", "setting": "[2]; Table VI, single compound, dose rate 16 ppm", "result": 51, "unit": "%"}, {"measurement": "pest or weed control at 64 ppm", "setting": "[2]; Table VI, single compound, dose rate 64 ppm", "result": 100, "unit": "%"}, {"measurement": "pest or weed control at 0.4 ppm", "setting": "[2]; [9]", "result": 0, "unit": "%"}, {"measurement": "pest or weed control at 2 ppm", "setting": "[2]; [9]", "result": 2, "unit": "%"}, {"measurement": "pest or weed control at 10 ppm", "setting": "[2]; [9]", "result": 55, "unit": "%"}, {"measurement": "pest or weed control at 50 ppm", "setting": "[2]; [9]", "result": 96, "unit": "%"}, {"measurement": "pest or weed control at 0.4 ppm", "setting": "[3]; Example 13, Table XIII", "result": 0, "unit": "%"}, {"measurement": "pest or weed control at 2 ppm", "setting": "[3]; Example 13, Table XIII", "result": 0, "unit": "%"}, {"measurement": "pest or weed control at 10 ppm", "setting": "[3]; Example 13, Table XIII", "result": 34, "unit": "%"}, {"measurement": "pest or weed control at 50 ppm", "setting": "[3]; Example 13, Table XIII", "result": 58, "unit": "%"}, {"measurement": "pest or weed control at 0.4 ppm", "setting": "[3]; Example 16, Table XVI", "result": 0, "unit": "%"}, {"measurement": "pest or weed control at 2 ppm", "setting": "[3]; Example 16, Table XVI", "result": 0, "unit": "%"}, {"measurement": "pest or weed control at 10 ppm", "setting": "[3]; Example 16, Table XVI", "result": 0, "unit": "%"}, {"measurement": "pest or weed control at 50 ppm", "setting": "[3]; Example 16, Table XVI", "result": 11, "unit": "%"}, {"measurement": "Observed Efficacy", "setting": "[4]; dose rate 0.25 ppm", "result": 0, "unit": "%"}, {"measurement": "Observed Efficacy", "setting": "[4]; dose rate 0.5 ppm", "result": 21, "unit": "%"}, {"measurement": "Observed Efficacy", "setting": "[4]; dose rate 1 ppm", "result": 28, "unit": "%"}, {"measurement": "Observed Efficacy", "setting": "[4]; dose rate 2 ppm", "result": 9, "unit": "%"}, {"measurement": "Observed Efficacy", "setting": "[4]; dose rate 4 ppm", "result": 43, "unit": "%"}, {"measurement": "Observed Efficacy", "setting": "[4]; dose rate 8 ppm", "result": 42, "unit": "%"}, {"measurement": "pest or weed control at 4 ppm", "setting": "[5]; Table VIII", "result": 0, "unit": "%"}, {"measurement": "pest or weed control at 16 ppm", "setting": "[5]; Table VIII", "result": 0, "unit": "%"}, {"measurement": "pest or weed control at 64 ppm", "setting": "[5]; Table VIII", "result": 14, "unit": "%"}, {"measurement": "pest or weed control at 256 ppm", "setting": "[5]; Table VIII", "result": 34, "unit": "%"}, {"measurement": "pest or weed control at 4 ppm", "setting": "[5]; Table X", "result": 0, "unit": "%"}, {"measurement": "pest or weed control at 16 ppm", "setting": "[5]; Table X", "result": 10, "unit": "%"}, {"measurement": "pest or weed control at 64 ppm", "setting": "[5]; Table X", "result": 18, "unit": "%"}, {"measurement": "pest or weed control at 256 ppm", "setting": "[5]; Table X", "result": 44, "unit": "%"}, {"measurement": "Observed Efficacy", "setting": "[6]; dose rate 0.67 ppm", "result": 9, "unit": "%"}, {"measurement": "Observed Efficacy", "setting": "[6]; dose rate 2 ppm", "result": 27, "unit": "%"}, {"measurement": "Observed Efficacy", "setting": "[6]; dose rate 6 ppm", "result": 42, "unit": "%"}, {"measurement": "Observed Efficacy", "setting": "[6]; dose rate 18 ppm", "result": 78, "unit": "%"}, {"measurement": "Observed Efficacy", "setting": "[6]; dose rate 54 ppm", "result": 92, "unit": "%"}]}
{"smiles": "CC(C1CC1)C(O)(Cn1cncn1)c1ccc(Cl)cc1", "note": "(stereo not drawn) [Cyproconazole]", "values": [{"measurement": "pest or weed control at 0.4 ppm", "setting": "[1]; [7]", "result": 58, "unit": "%"}]}
